Results reported in ChEMBL document CHEMBL1201862, “PubChem BioAssay data set” (2004).
The source made the active and inactive calls.

Tests used:
Cytochrome P450 3A4 = Cytochrome P450 3A4 (Homo sapiens, UniProt P08684);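 also: CYP3A4 tested as one member of a cytochrome P450 panel screen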
Cytochrome P450 2C9 = Cytochrome P450 2C9 (Homo sapiens, UniProt P11712)
Protein RecA = biological target: T1, Protein RecA (Mycobacterium tuberculosis, UniProt P9WHJ3); test: Fluorescence Cell-Free Homogeneous Dose Retest to Identify Inhibitors of RecA-Intein Splicing Activity. [Related pubchem assays (depositor defined):AID2097, AID2223, AID489010, AID492950]; type: functional
T1 sequence (P9WHJ3 whole entry): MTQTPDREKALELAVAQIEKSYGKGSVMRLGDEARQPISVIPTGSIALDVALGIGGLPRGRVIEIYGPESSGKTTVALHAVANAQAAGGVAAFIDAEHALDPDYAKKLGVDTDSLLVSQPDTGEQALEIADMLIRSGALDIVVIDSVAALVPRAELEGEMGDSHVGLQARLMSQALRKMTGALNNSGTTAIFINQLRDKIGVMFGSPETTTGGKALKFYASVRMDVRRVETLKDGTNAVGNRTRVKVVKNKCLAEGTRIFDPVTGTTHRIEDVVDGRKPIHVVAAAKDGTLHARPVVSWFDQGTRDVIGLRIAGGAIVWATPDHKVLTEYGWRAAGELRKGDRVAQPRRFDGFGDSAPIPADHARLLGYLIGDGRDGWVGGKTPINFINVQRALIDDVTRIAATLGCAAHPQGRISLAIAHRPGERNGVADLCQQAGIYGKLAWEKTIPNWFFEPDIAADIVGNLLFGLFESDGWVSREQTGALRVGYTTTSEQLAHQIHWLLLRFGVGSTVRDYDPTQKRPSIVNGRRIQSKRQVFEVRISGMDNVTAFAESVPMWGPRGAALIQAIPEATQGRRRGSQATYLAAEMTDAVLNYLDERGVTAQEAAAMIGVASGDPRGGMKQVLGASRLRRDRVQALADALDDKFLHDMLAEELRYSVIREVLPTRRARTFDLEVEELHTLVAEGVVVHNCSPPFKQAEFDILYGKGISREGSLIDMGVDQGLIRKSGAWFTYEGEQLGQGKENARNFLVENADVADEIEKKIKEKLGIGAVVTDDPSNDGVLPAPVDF

[1] = Trypanosoma cruzi growth suppression in host cells – NIH3T3 host cells, beta-gal luminescence, confirmation (AID 2044); type: functional, cell-based;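 also: intracellular parasites grown in NIH/3T3 mouse fibroblasts as host cells; luminescent beta-galactosidase reporter signal from transgenic T. cruzi replicating inside host cells; inhibitors lower the luminescence signal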
[2] = NIH3T3 cell viability loss – ATP luminescence, mouse fibroblasts, counter-screen, dose response (AID 2010); type: functional, cell-based;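 also: cells exposed to compound for about 90 hours before reading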
Cytochrome P450 2D6 = Cytochrome P450 2D6 (Homo sapiens, UniProt P10635);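 also: CYP2D6 member of a cytochrome P450 panel assay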
Cytochrome P450 2C19 = Cytochrome P450 2C19 (Homo sapiens, UniProt P33261); test: Cytochrome panel assay with activity outcomes. Panel member name: p450-cyp2c19 Compounds with AC50 equal or less than 10 uM are considered active; type: functional
Chain of Cytochrome P450 2C19 (P33261 whole entry): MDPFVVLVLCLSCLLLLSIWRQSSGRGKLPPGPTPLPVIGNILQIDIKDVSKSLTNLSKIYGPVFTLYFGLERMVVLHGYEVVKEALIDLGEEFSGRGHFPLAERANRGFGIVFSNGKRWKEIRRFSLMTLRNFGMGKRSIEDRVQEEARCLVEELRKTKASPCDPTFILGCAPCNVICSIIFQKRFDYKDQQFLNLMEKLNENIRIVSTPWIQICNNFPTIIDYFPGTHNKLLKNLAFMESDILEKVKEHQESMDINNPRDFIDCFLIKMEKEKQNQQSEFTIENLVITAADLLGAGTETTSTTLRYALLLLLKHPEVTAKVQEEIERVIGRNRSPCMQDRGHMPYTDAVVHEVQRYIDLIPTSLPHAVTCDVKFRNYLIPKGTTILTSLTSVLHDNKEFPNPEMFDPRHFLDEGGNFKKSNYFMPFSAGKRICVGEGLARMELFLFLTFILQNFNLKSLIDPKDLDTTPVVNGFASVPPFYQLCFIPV

Chain of Cytochrome P450 2D6 (P10635 whole entry): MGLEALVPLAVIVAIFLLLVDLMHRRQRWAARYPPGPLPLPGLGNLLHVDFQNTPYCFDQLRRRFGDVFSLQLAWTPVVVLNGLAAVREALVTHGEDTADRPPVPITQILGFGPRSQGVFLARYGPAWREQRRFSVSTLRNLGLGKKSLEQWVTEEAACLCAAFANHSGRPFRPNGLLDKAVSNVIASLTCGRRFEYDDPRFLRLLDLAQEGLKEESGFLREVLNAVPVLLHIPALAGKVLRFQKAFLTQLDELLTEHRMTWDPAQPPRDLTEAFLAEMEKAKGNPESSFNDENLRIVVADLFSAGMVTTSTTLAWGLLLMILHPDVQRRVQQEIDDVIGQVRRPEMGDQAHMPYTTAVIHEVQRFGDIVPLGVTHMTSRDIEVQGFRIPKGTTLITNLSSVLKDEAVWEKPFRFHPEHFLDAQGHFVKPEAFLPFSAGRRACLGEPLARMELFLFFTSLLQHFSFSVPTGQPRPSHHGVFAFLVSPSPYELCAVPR
Chain of Cytochrome P450 2C9 (P11712 whole entry): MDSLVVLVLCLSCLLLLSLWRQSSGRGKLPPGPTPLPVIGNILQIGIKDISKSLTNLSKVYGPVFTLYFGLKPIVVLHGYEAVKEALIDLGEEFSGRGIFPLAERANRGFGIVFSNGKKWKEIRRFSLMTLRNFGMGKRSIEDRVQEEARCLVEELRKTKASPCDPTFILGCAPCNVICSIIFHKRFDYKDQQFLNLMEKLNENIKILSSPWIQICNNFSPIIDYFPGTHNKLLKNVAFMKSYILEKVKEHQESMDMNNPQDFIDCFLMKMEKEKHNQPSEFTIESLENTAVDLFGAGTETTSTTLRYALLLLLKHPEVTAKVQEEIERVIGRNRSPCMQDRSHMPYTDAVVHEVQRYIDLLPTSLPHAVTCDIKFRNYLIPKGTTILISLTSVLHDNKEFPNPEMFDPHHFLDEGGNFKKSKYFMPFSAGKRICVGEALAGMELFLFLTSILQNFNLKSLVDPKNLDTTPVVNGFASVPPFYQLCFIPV
Chain of Cytochrome P450 3A4 (P08684 whole entry): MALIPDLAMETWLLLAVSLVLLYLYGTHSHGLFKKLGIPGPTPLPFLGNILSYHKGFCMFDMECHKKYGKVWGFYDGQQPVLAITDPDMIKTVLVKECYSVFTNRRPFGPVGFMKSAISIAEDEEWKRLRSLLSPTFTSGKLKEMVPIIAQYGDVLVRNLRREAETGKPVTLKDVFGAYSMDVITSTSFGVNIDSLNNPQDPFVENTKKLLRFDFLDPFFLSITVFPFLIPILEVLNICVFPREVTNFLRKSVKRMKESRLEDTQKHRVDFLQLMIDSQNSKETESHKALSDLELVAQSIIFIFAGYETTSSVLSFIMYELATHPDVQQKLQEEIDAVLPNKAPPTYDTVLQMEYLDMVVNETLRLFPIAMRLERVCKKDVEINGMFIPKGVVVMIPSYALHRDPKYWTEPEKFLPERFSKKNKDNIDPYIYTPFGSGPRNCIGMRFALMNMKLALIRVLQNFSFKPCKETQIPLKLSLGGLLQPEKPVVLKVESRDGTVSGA

## O=c1c(-c2ccc(Cl)cc2)nc2cnc(N3CCNCC3)nc2n1-c1ccccc1
Cytochrome P450 3A4
  AC50: 12.6 µM (inconclusive)
Cytochrome P450 2C9
  AC50: 15.8 µM (inconclusive)

## CCCc1n[nH]c2c1C(c1ccc(OCCN3CCOCC3)c(OCC)c1)C(C#N)=C(N)O2 (stereo not given)
Protein RecA
  EC50: 10 µM (active)

## Cc1nn(Cc2ccc(C(=O)Nc3ccc(C(=O)OC(C)C)cc3)o2)c(C)c1Cl
[1]
  EC50: 2.86 µM (active)
[2]
  EC50: > 60 µM (not active)

## CC(C(=O)N1CCc2ccccc21)N1CCN(Cc2ccccc2)CC1 (stereo not given)
[1]
  EC50: 0.793 µM (active)
[2]
  EC50: > 60 µM (not active)

## COC(=O)[C@@H]1CC[C@H](C)[C@@H](c2ccc(C)cc2)N1C(=O)c1ccc(/C=N\O[C@@H](C)CN2CCCc3nc(C)c(C)cc32)cc1
Cytochrome P450 2D6
  AC50: 6.31 µM (inconclusive)
Cytochrome P450 3A4
  AC50: 3.98 µM (inconclusive)
Cytochrome P450 2C9
  AC50: 3.16 µM (inconclusive)

## COc1ncc2nc(C)c(=O)n(-c3ccccc3)c2n1
Cytochrome P450 2C19; read-out: AC50
  AC50: 39.8 µM (inconclusive)
Cytochrome P450 3A4
  AC50: 25.1 µM (inconclusive)

## CCc1cc2c(nc1CC)CCN(CC/C(C)=N/OCC[C@@H]1C=C[C@H](OC(C)=O)[C@H](COC(C)=O)O1)C2
Cytochrome P450 3A4
  AC50: 3.16 µM (inconclusive)

## Cc1nc(-c2cccnc2)sc1C(N)=O
Cytochrome P450 2C19; read-out: AC50
  AC50: 5.01 µM (inconclusive)
Cytochrome P450 3A4
  AC50: 28.2 µM (inconclusive)

## COc1ccc(C(=O)N2CCC3(CC2)CN(c2ccncc2)C3)cc1
Cytochrome P450 2D6
  AC50: 25.1 µM (inconclusive)
Cytochrome P450 3A4
  AC50: 15.8 µM (inconclusive)
Cytochrome P450 2C9
  AC50: 39.8 µM (inconclusive)

## COC(=O)[C@@]1(Cc2ccccc2)[C@H]2c3cc(C(=O)N(C)C)n(Cc4ccc(O)c(OC)c4)c3C[C@H]2CN1C(=O)c1ccccc1
Cytochrome P450 2D6
  AC50: 31.6 µM (inconclusive)

## COc1ccc(-c2cn3c([n+]2-c2ccccc2)SCC3)cc1
[1]
  EC50: 1.3 µM (active)
[2]
  EC50: > 60 µM (not active)

## O=C(CCN1CCCCC1)N1CCc2c([nH]c3ccccc23)[C@H]1c1cccnc1
Cytochrome P450 2D6
  AC50: 3.16 µM (inconclusive)
Cytochrome P450 2C19
  AC50: inconclusive

## Cn1c(=O)c(-c2cccc(F)c2)nc2cncnc21
Cytochrome P450 3A4
  AC50: 20 µM (inconclusive)

## CCCC/C=C/C(NC(=O)c1ccco1)c1ccccc1 (stereo not given)
Cytochrome P450 2D6
  AC50: 39.8 µM (inconclusive)

## O=C(N/N=C/c1ccc(Cl)cc1Cl)c1cccc(F)c1
Cytochrome P450 2D6
  AC50: 8.91 µM (inconclusive)
Cytochrome P450 3A4
  AC50: 31.6 µM (inconclusive)

## COCCn1c(=O)cnc2cnc(Oc3cccc(Cl)c3)nc21
Cytochrome P450 3A4
  AC50: 31.6 µM (inconclusive)

## O=C(CSc1nc2ccccc2c2ccccc12)c1ccccc1
Cytochrome P450 2C19; read-out: AC50
  AC50: 6.31 µM (inconclusive)
Cytochrome P450 3A4
  AC50: 3.98 µM (inconclusive)

## Cc1ccccc1C(=O)N1CCc2ccccc2C1
Cytochrome P450 3A4
  AC50: 6.31 µM (inconclusive)
Cytochrome P450 2C9
  AC50: 5.62 µM (inconclusive)

## Clc1ccc(NC2=NCCCS2)cc1Cl
[1]
  EC50: 1.8 µM (active)
[2]
  EC50: > 60 µM (not active)

## COc1ccc(C(=O)c2ccc([N+](=O)[O-])cc2Cl)cc1
[1]
  EC50: 2.15 µM (active)
[2]
  EC50: > 30 µM (not active)

## CC#CCOC(=O)c1c(C)nc2sc3c(c2c1N)CC[C@@H](O)C3
Cytochrome P450 2D6
  AC50: 31.6 µM (inconclusive)
Cytochrome P450 2C9
  AC50: 15.8 µM (inconclusive)

## CCCC1(C(=O)OC)C=C2C(=C(c3ccccc3)C(=O)C2C)CN1 (stereo not given)
Cytochrome P450 3A4
  AC50: 10 µM (inconclusive)

## Cc1cccc(NC(=O)Nc2ccncc2)c1
[1]
  EC50: 0.781 µM (active)
[2]
  EC50: > 60 µM (not active)

## Cc1cc2c(cc1C)NC1=C(O)[C@@H](c3c[nH]c4ccc(COc5ccccc5)cc34)OC1=N2
Cytochrome P450 2C9
  AC50: 7.94 µM (inconclusive)

## O=C1Nc2ccccc2C(O)(C(=O)NCc2ccc3c(c2)OCO3)N1c1ccc(Cl)c(Cl)c1 (stereo not given)
Cytochrome P450 2D6
  AC50: 1.12 µM (inconclusive)

## COCCn1c(=O)c(-c2ccccc2)nc2cnc(OC)nc21
Cytochrome P450 3A4
  AC50: 25.1 µM (inconclusive)
Cytochrome P450 2C9
  AC50: 20 µM (inconclusive)

## O=c1c2ccccc2c(-c2ccc(Br)cc2)nn1Cc1ccccc1
Cytochrome P450 2C19; read-out: AC50
  AC50: 5.62 µM (inconclusive)
Cytochrome P450 3A4
  AC50: 25.1 µM (inconclusive)
Cytochrome P450 2C9
  AC50: 3.55 µM (inconclusive)

## Cc1nc(C(=O)Nc2ccc(Cl)cc2)sc1C1(C)CC(c2cccc([N+](=O)[O-])c2)=NO1 (stereo not given)
[1]
  EC50: 0.545 µM (active)
[2]
  EC50: > 60 µM (not active)

## COC(=O)c1scc(C)c1NC(=O)Cc1ccccc1
Cytochrome P450 3A4
  AC50: 22.4 µM (inconclusive)

## O=C(O)/C=C\c1c[nH]cn1 [CIS-UROCANIC ACID]
Cytochrome P450 3A4
  AC50: 0.251 µM (inconclusive)

## CSc1ccccc1NC(=O)c1cc(-c2cccnc2)nc2ccc(Br)cc12
[1]
  EC50: 2 µM (active)
[2]
  EC50: > 60 µM (not active)

## N#Cc1c(Cl)cccc1-n1ccnc1
Cytochrome P450 2D6
  AC50: 7.08 µM (inconclusive)
Cytochrome P450 2C9
  AC50: 2.82 µM (inconclusive)

## Cc1c(CCC(C)C)c(-n2ccnc2C)n2c(nc3ccccc32)c1C#N
Cytochrome P450 3A4
  AC50: 14.1 µM (inconclusive)
Cytochrome P450 2C9
  AC50: 3.98 µM (inconclusive)

## Nc1n[nH]c2ccccc12
Cytochrome P450 3A4
  AC50: 3.98 µM (inconclusive)

## O=C(O)C(=O)Cc1ccc2c(c1)OCO2
Cytochrome P450 2C19
  AC50: inconclusive

## O=C1C2CCC(C(O)C2)N1Cc1ccccc1 (stereo not given)
Cytochrome P450 3A4
  AC50: 17.8 µM (inconclusive)

## C=CCSc1ncccc1C(=O)NCc1ccc(C)cc1
Cytochrome P450 2C9
  AC50: 12.6 µM (inconclusive)

## CCCCCC(=O)Nc1cc(S(=O)(=O)N2CCOCC2)ccc1N1CCN(C)CC1
[1]
  EC50: 0.813 µM (active)
[2]
  EC50: > 60 µM (not active)

## CCC(C)N1C(=O)C2C(C(=O)Nc3cccc(OC)c3)C3C=CC2(O3)C1C(=O)NC1CCCCC1C (stereo not given)
Cytochrome P450 2D6
  AC50: 7.08 µM (inconclusive)
Cytochrome P450 2C19; read-out: AC50
  AC50: 28.2 µM (inconclusive)
Cytochrome P450 2C9
  AC50: 12.6 µM (inconclusive)

## Cc1onc(-c2ccccc2Cl)c1C(=O)NCC(=O)O
Cytochrome P450 2C19; read-out: AC50
  AC50: 39.8 µM (inconclusive)

## O=C1CCC[C@@H]2Cc3[nH]c4c(Cl)ccc(Cl)c4c3[C@@H]3CCN1[C@H]23
[1]
  EC50: 1.33 µM (active)
[2]
  EC50: > 60 µM (not active)

## O=[N+]([O-])c1ccc(C2=Nn3c(nnc3-c3ccc(Cl)cc3)SC2)o1
Cytochrome P450 2D6
  AC50: 5.01 µM (inconclusive)
Cytochrome P450 2C9
  AC50: 7.94 µM (inconclusive)

## CCN1CCCC1CNC(=O)c1ccc(Sc2ccc(F)cc2)c([N+](=O)[O-])c1 (stereo not given)
[1]
  EC50: 0.879 µM (active)
[2]
  EC50: > 60 µM (inconclusive)

## CN1CCN(c2ccccc2NC(=O)c2ccc(-c3ccc(Br)cc3)o2)CC1
[1]
  EC50: 2.18 µM (active)
[2]
  EC50: 4.08 µM (active)

## COc1ccc(N2CCN(C(CNC(=O)C(=O)NCCCn3ccnc3)c3cccnc3)CC2)cc1 (stereo not given)
[1]
  EC50: < 0.1 µM (active)
[2]
  EC50: 10.4 µM (active)

## O=C(N[C@@]1(C(=O)O)C[C@@H]1c1ccccc1)c1ccccc1
Cytochrome P450 2C19
  AC50: inconclusive

## CN(C)c1ncnc2ccc(-c3ccccc3C#N)cc12
Cytochrome P450 3A4
  AC50: 1.58 µM (inconclusive)

## COc1ccc(-c2nc3cnc(N4CCN(C)CC4)nc3n(Cc3cccs3)c2=O)cc1
Cytochrome P450 2C19
  AC50: inconclusive

## Cc1ccc(-n2c(C)cc(C(=S)N3CCOCC3)c2C)cc1C
Cytochrome P450 2D6
  AC50: 22.4 µM (inconclusive)
Cytochrome P450 3A4
  AC50: 31.6 µM (inconclusive)

## Cn1c(=O)cnc2cnc(Oc3ccccc3)nc21
Cytochrome P450 2C19; read-out: AC50
  AC50: 39.8 µM (inconclusive)

## CCN1CCN(C(c2ccccn2)c2c(NC(=O)c3ccccc3)sc(C)c2C)CC1 (stereo not given)
Cytochrome P450 2C19; read-out: AC50
  AC50: 17.8 µM (inconclusive)

## c1ccc(Nc2cccc(Nc3ccccc3)c2)cc1
[1]
  EC50: 0.937 µM (active)
[2]
  EC50: > 60 µM (not active)

## C#CCCCO/N=C1/C[C@@H](O)[C@@H](O)[C@@H]2[C@@H]3C(=O)N(C[C@@H]4CCCO4)C(=O)[C@H]3CC[C@H]12
Cytochrome P450 3A4
  AC50: 6.31 µM (inconclusive)

## N#Cc1ccc(CN2CCCC3(CCNCC3)C2)cc1
Cytochrome P450 2D6
  AC50: 20 µM (inconclusive)

## O=C(/C=C/c1cn(-c2ccccc2)nc1-c1cccc(Cl)c1)N1CCN(c2ccccn2)CC1
[1]
  EC50: 1.72 µM (active)
[2]
  EC50: > 60 µM (not active)

## N#C/C(=C(/O)CN1CCCCC1)c1nc(-c2ccc(Cl)cc2)cs1
Cytochrome P450 2C19; read-out: AC50
  AC50: 10 µM (inconclusive)
Cytochrome P450 3A4
  AC50: 10 µM (inconclusive)

## O=C(CN1CCCC1)N/N=C/c1ccc(-c2cccc(Cl)c2)o1
Cytochrome P450 2C9
  AC50: 15.8 µM (inconclusive)

## CCCOc1ccc(C(=O)NC(=S)Nc2nc3ccc(C)cc3s2)cc1
Cytochrome P450 2C19; read-out: AC50
  AC50: 15.8 µM (inconclusive)
